Here are results for one compound from publication PMC11364541 (Nature Communications, 2024).

The experiment deals with T1, SLC13A3 (Homo sapiens, UniProt Q8WWT9).
T1 sequence (Q8WWT9 1-602): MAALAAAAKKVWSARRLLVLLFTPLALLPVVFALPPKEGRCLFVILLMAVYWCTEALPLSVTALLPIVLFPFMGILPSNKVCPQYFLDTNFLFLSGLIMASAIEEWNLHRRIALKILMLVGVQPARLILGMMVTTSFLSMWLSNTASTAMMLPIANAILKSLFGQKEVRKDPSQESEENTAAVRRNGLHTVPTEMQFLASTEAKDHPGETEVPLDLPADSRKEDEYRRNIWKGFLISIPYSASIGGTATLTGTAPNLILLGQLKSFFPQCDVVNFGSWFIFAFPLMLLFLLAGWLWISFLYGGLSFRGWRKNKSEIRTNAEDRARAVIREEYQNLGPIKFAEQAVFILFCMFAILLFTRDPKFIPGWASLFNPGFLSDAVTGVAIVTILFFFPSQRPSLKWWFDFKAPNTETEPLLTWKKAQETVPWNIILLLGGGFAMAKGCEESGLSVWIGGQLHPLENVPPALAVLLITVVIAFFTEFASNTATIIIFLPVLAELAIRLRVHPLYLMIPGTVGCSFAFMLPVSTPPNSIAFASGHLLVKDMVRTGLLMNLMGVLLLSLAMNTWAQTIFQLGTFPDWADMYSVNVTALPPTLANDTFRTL
Nature of the experiment: inhibition of […]-succinate uptake in SLC13A3-transfected HEK293 cells. In kind it is cell-based.

A word on the pIC50: it is the negative decadic logarithm of the IC50, by convention in mol/L.

pIC50: −log10 of the molar value.

`N[C@@H](CCC(=O)N[C@@H](CS)C(=O)NCC(=O)O)C(=O)O` [GSH, glutathione] gave a pIC50 of 2.72.
